# Experimental data published in ChEMBL document CHEMBL4433239, “Synthesis of N'-propylhydrazide analogs of hydroxamic inhibitors of histone deacetylases (HDACs) and evaluation of their impact on activities of HDACs and replication of hepatitis C virus (HCV)” (Bioorg Med Chem Lett, 2019).
# pEC50, pIC50: −log10 of the molar value. Activity calls are given as the source filed them. No cut-off for these calls is given here.
# Experiments:
# [1] = Therapeutic index, ratio of CC50 for human HuH7 cells to EC50 for antiviral activity against HCV infected in human HuH7-luc/neo cells assessed as inhibition of DNA replication i
# [2] = Cytotoxicity against human HuH7 cells assessed as reduction in cell viability incubated for 3 days by MTT assay; type: cell-based, Huh-7
# [3] = tested on: Hepatitis C virus; test: Antiviral activity against HCV infected in human HuH7-luc/neo cells assessed as inhibition of DNA replication incubated for 3 days by luciferase reporter gene assay; type: functional, organism-based, Hepacivirus hominis; settings: 72 h
# [4] = biological target: T1, Protein deacetylase HDAC6 (Homo sapiens, UniProt Q9UBN7); test: Inhibition of human recombinant HDAC 6 by HDAC-Glo luminescent assay
# T1 sequence (Q9UBN7 whole entry): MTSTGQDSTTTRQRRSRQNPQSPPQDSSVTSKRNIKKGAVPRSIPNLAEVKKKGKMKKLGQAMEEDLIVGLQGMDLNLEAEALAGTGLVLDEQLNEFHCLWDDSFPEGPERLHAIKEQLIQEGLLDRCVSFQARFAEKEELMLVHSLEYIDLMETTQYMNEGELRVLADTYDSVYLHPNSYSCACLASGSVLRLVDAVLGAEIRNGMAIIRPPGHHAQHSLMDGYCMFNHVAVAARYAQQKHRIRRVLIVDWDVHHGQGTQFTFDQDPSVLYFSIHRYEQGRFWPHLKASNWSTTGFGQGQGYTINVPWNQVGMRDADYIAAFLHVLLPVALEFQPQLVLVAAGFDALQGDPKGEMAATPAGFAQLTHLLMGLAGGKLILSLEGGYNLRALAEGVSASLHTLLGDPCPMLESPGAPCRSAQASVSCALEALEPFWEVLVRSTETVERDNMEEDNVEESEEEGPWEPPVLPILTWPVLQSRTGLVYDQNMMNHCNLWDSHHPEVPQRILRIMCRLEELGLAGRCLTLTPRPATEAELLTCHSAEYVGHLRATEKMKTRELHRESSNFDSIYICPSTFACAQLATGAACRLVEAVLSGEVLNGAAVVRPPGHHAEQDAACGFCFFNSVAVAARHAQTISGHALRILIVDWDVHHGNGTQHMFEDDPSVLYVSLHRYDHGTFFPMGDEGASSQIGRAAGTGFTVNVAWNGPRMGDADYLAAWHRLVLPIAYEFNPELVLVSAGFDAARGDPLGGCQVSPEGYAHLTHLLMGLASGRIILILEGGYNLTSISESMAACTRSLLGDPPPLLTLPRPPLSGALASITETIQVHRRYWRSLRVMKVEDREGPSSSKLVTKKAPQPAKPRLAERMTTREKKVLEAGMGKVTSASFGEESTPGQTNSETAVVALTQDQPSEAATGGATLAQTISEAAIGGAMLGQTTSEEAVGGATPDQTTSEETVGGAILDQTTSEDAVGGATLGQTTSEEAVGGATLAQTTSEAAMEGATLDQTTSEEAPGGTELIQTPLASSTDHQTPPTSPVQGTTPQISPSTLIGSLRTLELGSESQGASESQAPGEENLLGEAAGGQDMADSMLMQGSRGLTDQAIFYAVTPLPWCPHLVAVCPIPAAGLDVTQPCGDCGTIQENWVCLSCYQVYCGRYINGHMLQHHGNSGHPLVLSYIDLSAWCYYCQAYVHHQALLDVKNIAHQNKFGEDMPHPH
# [5] = biological target: Histone deacetylase 3 (Homo sapiens) (UniProt O15379); test: Inhibition of HDAC3 in human Huh7-luc/neo cells assessed as increase in histone H3 K9 acetylation incubated for 24 hrs by Western blot analysis
# Histone deacetylase 3 (Homo sapiens), sequence (O15379 whole entry): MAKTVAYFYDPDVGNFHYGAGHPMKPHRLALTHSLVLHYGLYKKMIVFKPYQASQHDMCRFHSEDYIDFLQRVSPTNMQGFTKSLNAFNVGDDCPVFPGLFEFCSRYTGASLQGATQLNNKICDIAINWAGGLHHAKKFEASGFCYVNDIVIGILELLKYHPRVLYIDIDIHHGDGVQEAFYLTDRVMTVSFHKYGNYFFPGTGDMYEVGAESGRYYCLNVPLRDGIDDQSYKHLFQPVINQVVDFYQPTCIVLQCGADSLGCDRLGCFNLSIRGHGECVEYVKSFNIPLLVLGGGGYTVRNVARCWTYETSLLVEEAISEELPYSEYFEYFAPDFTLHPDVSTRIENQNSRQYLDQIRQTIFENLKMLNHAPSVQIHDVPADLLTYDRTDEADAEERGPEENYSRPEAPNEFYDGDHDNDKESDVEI
# [6] = HuH7 cells (CC50) and HCV-infected HuH7-luc/neo cells (EC50)
Structure (SMILES),"selectivity ratio [1, 6]",CC50 at 72 h [2] [µM],pEC50 [3],selectivity ratio [1],pIC50 [4],inhibition [5]
CCCNNC(=O)CCc1ccccc1,25,96,5.42,,,
CN1CCc2c(c3ccccc3n2Cc2ccc(C(=O)NO)cc2)C1 [TUBASTATIN A],,[…],6.52,[…],,
CCCNNC(=O)CCCCCCC(=O)Nc1ccccc1,5.4,7,5.89,,,
CCCNNC(=O)c1ccccc1,22,120,5.26,,,
CCNNC(=O)c1ccccc1,,> 1000,,,,
O=C(NO)c1ccc(-c2ccccc2)cc1,75,30,6.40,,,
Cc1nc2ccccc2n1Cc1ccc(C(=O)NO)cc1,29,7.9,6.57,,,
CCCNNC(=O)c1ccc(Cn2c(C)nc3ccccc32)cc1,400,9.9,7.60,,,
CCCNNC(=O)C1c2ccccc2Oc2ccccc21,,> 300,,,,
CCCNNC(=O)c1ccc(Cn2c3c(c4ccccc42)CN(C)CC3)cc1,22,5.3,6.62,,,
O=C(/C=C/c1ccccc1)NO,,20,5.70,10,,
N[C@H](Cc1ccc(Cl)cc1Cl)C(=O)N1Cc2ccccc2C1,,,,,4.52,
O=C(CCCCCCC(=O)Nc1ccccc1)NO [VORINOSTAT],,0.64,,,,
CNNC(=O)c1ccccc1,,> 1000,,,,
O=C(NCC1(c2nc(-c3ccccc3)cs2)CCOCC1)c1cccc(-c2noc(C(F)(F)F)n2)c1,,83,5.35,18,,Active
O=C(CCc1ccccc1)NO,21,110,5.28,,,
CCCNNC(=O)/C=C/c1cccc(S(=O)(=O)Nc2ccccc2)c1,1.2,0.68,6.26,,,
CCCNNC(=O)/C=C/c1ccccc1,3.3,18,5.27,,,
O=C(/C=C/c1cccc(S(=O)(=O)Nc2ccccc2)c1)NO [BELINOSTAT],,0.65,6.72,,,
CCCNNC(=O)c1ccc(-c2ccccc2)cc1,3.9,5.9,5.82,,,
O=C(NO)C1c2ccccc2Oc2ccccc21,400,300,6.12,,,
